{"source": "patent US7306804B2", "about": "(priority 1998, dated 2007)", "key": {"[1]": {"system": "PBMCs from control and HIV-1 infected chimpanzees", "type": "cell-based, chimpanzee"}, "[2]": {"system": "PBMCs from normal and HIV-positive individuals", "type": "cell-based, human", "conditions": "for number of HIV+ individuals with positive proliferative responses: 17 HIV+ individuals tested"}, "[3]": {"system": "anti-peptide antibodies in serum", "type": "binding, chimpanzee", "set-up": "key: +, Positive (Titer > 1:100); −, Negative (Titer < 1:100)"}, "[4]": {"system": "anti-peptide antibodies in serum", "type": "binding, human", "set-up": "key to Anti-peptide antibody response: +, Positive (titer above control); −, Negative (titer below control)"}}, "note": "Read-outs that look alike come from different tables or passages of the source.", "data": [{"substance": "STRTPEDSNSLGT [c-mos peptide, reference compound]", "values": [{"measurement": "T-cell proliferative response", "setting": "[1]; chimpanzee 40, control normal", "result": "− (−, Negative (SI < 2.0))"}, {"measurement": "T-cell proliferative response", "setting": "[1]; chimpanzee 62, HIV-infected", "result": "− (−, Negative (SI < 2.0))"}, {"measurement": "T-cell proliferative response", "setting": "[1]; chimpanzee 69, HIV-infected", "result": "− (−, Negative (SI < 2.0))"}, {"measurement": "T-cell proliferative response", "setting": "[1]; chimpanzee 73, control normal", "result": "− (−, Negative (SI < 2.0))"}, {"measurement": "T-cell proliferative response", "setting": "[1]; chimpanzee 80, HIV-infected", "result": "− (−, Negative (SI < 2.0))"}, {"measurement": "T-cell proliferative response", "setting": "[1]; chimpanzee 99, HIV-infected", "result": "− (−, Negative (SI < 2.0))"}, {"measurement": "T-cell proliferative response", "setting": "[1]; chimpanzee 100, HIV-infected", "result": "− (−, Negative (SI < 2.0))"}, {"measurement": "T-cell proliferative response", "setting": "[1]; chimpanzee 139, HIV-infected", "result": "− (−, Negative (SI < 2.0))"}, {"measurement": "SI, background level of proliferation", "setting": "[1]; chimpanzee 175", "result": 2.7}, {"measurement": "T-cell proliferative response", "setting": "[1]; chimpanzee 175, HIV-infected", "result": "+ (+, Positive (Stimulation Index [SI] > 2.0))"}, {"measurement": "T-cell proliferative response", "setting": "[1]; chimpanzee 247, HIV-infected", "result": "− (−, Negative (SI < 2.0))"}, {"measurement": "T-cell proliferative response", "setting": "[1]; chimpanzee 310, HIV-infected", "result": "− (−, Negative (SI < 2.0))"}, {"measurement": "number of HIV+ individuals with positive proliferative responses", "setting": "[2]", "result": "None"}, {"measurement": "number of HIV+ individuals with positive proliferative responses", "setting": "[2]; listed as control peptide", "result": "none"}, {"measurement": "T-cell proliferative response", "setting": "[2]; HIV-positive patient MSf", "result": "− (−, Negative (SI < 2.0))"}, {"measurement": "T-cell proliferative response", "setting": "[2]; HIV-positive patient MSm", "result": "− (−, Negative (SI < 2.0))"}, {"measurement": "T-cell proliferative response", "setting": "[2]; HIV-positive patient eight", "result": "− (−, Negative (SI < 2.0))"}, {"measurement": "T-cell proliferative response", "setting": "[2]; HIV-positive patient eleven", "result": "− (−, Negative (SI < 2.0))"}, {"measurement": "T-cell proliferative response", "setting": "[2]; HIV-positive patient fifteen", "result": "− (−, Negative (SI < 2.0))"}, {"measurement": "T-cell proliferative response", "setting": "[2]; HIV-positive patient five", "result": "− (−, Negative (SI < 2.0))"}, {"measurement": "T-cell proliferative response", "setting": "[2]; HIV-positive patient four", "result": "− (−, Negative (SI < 2.0))"}, {"measurement": "T-cell proliferative response", "setting": "[2]; HIV-positive patient fourteen", "result": "− (−, Negative (SI < 2.0))"}, {"measurement": "T-cell proliferative response", "setting": "[2]; HIV-positive patient nine", "result": "− (−, Negative (SI < 2.0))"}, {"measurement": "T-cell proliferative response", "setting": "[2]; HIV-positive patient one", "result": "− (−, Negative (SI < 2.0))"}, {"measurement": "T-cell proliferative response", "setting": "[2]; HIV-positive patient seven", "result": "− (−, Negative (SI < 2.0))"}, {"measurement": "T-cell proliferative response", "setting": "[2]; HIV-positive patient six", "result": "− (−, Negative (SI < 2.0))"}, {"measurement": "T-cell proliferative response", "setting": "[2]; HIV-positive patient ten", "result": "− (−, Negative (SI < 2.0))"}, {"measurement": "T-cell proliferative response", "setting": "[2]; HIV-positive patient thirteen", "result": "− (−, Negative (SI < 2.0))"}, {"measurement": "T-cell proliferative response", "setting": "[2]; HIV-positive patient three", "result": "− (−, Negative (SI < 2.0))"}, {"measurement": "T-cell proliferative response", "setting": "[2]; HIV-positive patient twelve", "result": "− (−, Negative (SI < 2.0))"}, {"measurement": "T-cell proliferative response", "setting": "[2]; HIV-positive patient two", "result": "− (−, Negative (SI < 2.0))"}, {"measurement": "T-cell proliferative response", "setting": "[2]; Normal-1 (HIV-seronegative)", "result": "− (−, Negative (SI < 2.0))"}, {"measurement": "T-cell proliferative response", "setting": "[2]; Normal-2 (HIV-seronegative)", "result": "− (−, Negative (SI < 2.0))"}, {"measurement": "Anti-peptide antibody response", "setting": "[3]", "result": "−"}, {"measurement": "Anti-peptide antibody response", "setting": "[3]; chimpanzee 40, control normal", "result": "−"}, {"measurement": "Anti-peptide antibody response", "setting": "[3]; chimpanzee 73, control normal", "result": "−"}, {"measurement": "Anti-peptide antibody response", "setting": "[4]; HIV-positive patient MSf", "result": "−"}, {"measurement": "Anti-peptide antibody response", "setting": "[4]; HIV-positive patient MSm", "result": "−"}, {"measurement": "Anti-peptide antibody response", "setting": "[4]; HIV-positive patient eight", "result": "−"}, {"measurement": "Anti-peptide antibody response", "setting": "[4]; HIV-positive patient eleven", "result": "−"}, {"measurement": "Anti-peptide antibody response", "setting": "[4]; HIV-positive patient fifteen", "result": "−"}, {"measurement": "Anti-peptide antibody response", "setting": "[4]; HIV-positive patient five", "result": "−"}, {"measurement": "Anti-peptide antibody response", "setting": "[4]; HIV-positive patient four", "result": "−"}, {"measurement": "Anti-peptide antibody response", "setting": "[4]; HIV-positive patient fourteen", "result": "−"}, {"measurement": "Anti-peptide antibody response", "setting": "[4]; HIV-positive patient nine", "result": "−"}, {"measurement": "Anti-peptide antibody response", "setting": "[4]; HIV-positive patient one", "result": "−"}, {"measurement": "Anti-peptide antibody response", "setting": "[4]; HIV-positive patient seven", "result": "−"}, {"measurement": "Anti-peptide antibody response", "setting": "[4]; HIV-positive patient six", "result": "−"}, {"measurement": "Anti-peptide antibody response", "setting": "[4]; HIV-positive patient ten", "result": "−"}, {"measurement": "Anti-peptide antibody response", "setting": "[4]; HIV-positive patient thirteen", "result": "−"}, {"measurement": "Anti-peptide antibody response", "setting": "[4]; HIV-positive patient three", "result": "−"}, {"measurement": "Anti-peptide antibody response", "setting": "[4]; HIV-positive patient twelve", "result": "−"}, {"measurement": "Anti-peptide antibody response", "setting": "[4]; HIV-positive patient two", "result": "−"}, {"measurement": "Anti-peptide antibody response", "setting": "[4]; Normal-1 (HIV-seronegative)", "result": "−"}, {"measurement": "Anti-peptide antibody response", "setting": "[4]; Normal-2 (HIV-seronegative)", "result": "−"}]}, {"substance": "phytohemagglutinin [PHA, reference compound]", "values": [{"measurement": "proliferation", "setting": "[1]; all nine HIV-infected chimpanzees", "result": "high levels of proliferation"}, {"measurement": "cpm values, proliferation", "setting": "[1]; two control uninfected chimpanzees", "result": "15832-20504 cpm"}, {"measurement": "SI values, proliferation", "setting": "[2]; HIV+ individuals", "result": "20.3-23.3"}, {"measurement": "cpm values, proliferation", "setting": "[2]; HIV+ individuals", "result": "108361-127640 cpm"}, {"measurement": "SI values, proliferation", "setting": "[2]; normal subjects", "result": "131-183"}]}]}
